Key:
[1] = biological target: T1, Phosphatidylinositol 4,5-bisphosphate 3-kinase catalytic subunit delta isoform (Homo sapiens, UniProt O00329); assay: Inhibition of PI3Kdelta (unknown origin) incubated for 60 mins by kinase-glo luminescence assay
T1 sequence (O00329 whole entry): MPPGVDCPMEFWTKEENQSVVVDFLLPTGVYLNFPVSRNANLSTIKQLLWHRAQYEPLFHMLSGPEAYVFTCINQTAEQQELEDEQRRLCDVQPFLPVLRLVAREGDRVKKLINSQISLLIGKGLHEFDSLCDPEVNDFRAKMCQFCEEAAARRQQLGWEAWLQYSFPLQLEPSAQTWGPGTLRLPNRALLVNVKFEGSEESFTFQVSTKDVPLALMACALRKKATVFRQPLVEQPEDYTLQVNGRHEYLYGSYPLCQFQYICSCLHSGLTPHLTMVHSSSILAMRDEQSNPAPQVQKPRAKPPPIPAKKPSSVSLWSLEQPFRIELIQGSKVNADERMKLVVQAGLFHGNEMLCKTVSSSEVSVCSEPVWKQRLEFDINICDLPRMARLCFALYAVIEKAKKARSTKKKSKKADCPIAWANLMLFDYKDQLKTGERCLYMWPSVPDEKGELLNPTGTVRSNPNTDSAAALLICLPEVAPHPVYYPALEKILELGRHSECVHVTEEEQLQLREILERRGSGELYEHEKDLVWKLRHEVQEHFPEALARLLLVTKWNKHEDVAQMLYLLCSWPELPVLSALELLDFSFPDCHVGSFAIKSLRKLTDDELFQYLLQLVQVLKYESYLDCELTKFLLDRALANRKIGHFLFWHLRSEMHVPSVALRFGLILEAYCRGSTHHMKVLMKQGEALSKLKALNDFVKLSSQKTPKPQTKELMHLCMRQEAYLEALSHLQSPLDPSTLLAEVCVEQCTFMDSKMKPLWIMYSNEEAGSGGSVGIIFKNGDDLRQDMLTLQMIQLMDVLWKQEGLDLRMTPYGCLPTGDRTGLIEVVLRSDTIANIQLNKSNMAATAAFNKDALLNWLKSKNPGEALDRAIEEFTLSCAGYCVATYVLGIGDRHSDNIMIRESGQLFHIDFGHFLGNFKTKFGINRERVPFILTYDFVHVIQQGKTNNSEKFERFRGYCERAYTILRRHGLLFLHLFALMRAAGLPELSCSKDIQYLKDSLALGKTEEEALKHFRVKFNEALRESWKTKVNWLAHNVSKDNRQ

[2] = biological target: DNA-dependent protein kinase catalytic subunit (Homo sapiens, UniProt P78527); assay: Inhibition of human DNA-PK using EPPLSQEAFADLWKK as substrate by HTRF assay
Sequence of DNA-dependent protein kinase catalytic subunit (P78527 whole entry): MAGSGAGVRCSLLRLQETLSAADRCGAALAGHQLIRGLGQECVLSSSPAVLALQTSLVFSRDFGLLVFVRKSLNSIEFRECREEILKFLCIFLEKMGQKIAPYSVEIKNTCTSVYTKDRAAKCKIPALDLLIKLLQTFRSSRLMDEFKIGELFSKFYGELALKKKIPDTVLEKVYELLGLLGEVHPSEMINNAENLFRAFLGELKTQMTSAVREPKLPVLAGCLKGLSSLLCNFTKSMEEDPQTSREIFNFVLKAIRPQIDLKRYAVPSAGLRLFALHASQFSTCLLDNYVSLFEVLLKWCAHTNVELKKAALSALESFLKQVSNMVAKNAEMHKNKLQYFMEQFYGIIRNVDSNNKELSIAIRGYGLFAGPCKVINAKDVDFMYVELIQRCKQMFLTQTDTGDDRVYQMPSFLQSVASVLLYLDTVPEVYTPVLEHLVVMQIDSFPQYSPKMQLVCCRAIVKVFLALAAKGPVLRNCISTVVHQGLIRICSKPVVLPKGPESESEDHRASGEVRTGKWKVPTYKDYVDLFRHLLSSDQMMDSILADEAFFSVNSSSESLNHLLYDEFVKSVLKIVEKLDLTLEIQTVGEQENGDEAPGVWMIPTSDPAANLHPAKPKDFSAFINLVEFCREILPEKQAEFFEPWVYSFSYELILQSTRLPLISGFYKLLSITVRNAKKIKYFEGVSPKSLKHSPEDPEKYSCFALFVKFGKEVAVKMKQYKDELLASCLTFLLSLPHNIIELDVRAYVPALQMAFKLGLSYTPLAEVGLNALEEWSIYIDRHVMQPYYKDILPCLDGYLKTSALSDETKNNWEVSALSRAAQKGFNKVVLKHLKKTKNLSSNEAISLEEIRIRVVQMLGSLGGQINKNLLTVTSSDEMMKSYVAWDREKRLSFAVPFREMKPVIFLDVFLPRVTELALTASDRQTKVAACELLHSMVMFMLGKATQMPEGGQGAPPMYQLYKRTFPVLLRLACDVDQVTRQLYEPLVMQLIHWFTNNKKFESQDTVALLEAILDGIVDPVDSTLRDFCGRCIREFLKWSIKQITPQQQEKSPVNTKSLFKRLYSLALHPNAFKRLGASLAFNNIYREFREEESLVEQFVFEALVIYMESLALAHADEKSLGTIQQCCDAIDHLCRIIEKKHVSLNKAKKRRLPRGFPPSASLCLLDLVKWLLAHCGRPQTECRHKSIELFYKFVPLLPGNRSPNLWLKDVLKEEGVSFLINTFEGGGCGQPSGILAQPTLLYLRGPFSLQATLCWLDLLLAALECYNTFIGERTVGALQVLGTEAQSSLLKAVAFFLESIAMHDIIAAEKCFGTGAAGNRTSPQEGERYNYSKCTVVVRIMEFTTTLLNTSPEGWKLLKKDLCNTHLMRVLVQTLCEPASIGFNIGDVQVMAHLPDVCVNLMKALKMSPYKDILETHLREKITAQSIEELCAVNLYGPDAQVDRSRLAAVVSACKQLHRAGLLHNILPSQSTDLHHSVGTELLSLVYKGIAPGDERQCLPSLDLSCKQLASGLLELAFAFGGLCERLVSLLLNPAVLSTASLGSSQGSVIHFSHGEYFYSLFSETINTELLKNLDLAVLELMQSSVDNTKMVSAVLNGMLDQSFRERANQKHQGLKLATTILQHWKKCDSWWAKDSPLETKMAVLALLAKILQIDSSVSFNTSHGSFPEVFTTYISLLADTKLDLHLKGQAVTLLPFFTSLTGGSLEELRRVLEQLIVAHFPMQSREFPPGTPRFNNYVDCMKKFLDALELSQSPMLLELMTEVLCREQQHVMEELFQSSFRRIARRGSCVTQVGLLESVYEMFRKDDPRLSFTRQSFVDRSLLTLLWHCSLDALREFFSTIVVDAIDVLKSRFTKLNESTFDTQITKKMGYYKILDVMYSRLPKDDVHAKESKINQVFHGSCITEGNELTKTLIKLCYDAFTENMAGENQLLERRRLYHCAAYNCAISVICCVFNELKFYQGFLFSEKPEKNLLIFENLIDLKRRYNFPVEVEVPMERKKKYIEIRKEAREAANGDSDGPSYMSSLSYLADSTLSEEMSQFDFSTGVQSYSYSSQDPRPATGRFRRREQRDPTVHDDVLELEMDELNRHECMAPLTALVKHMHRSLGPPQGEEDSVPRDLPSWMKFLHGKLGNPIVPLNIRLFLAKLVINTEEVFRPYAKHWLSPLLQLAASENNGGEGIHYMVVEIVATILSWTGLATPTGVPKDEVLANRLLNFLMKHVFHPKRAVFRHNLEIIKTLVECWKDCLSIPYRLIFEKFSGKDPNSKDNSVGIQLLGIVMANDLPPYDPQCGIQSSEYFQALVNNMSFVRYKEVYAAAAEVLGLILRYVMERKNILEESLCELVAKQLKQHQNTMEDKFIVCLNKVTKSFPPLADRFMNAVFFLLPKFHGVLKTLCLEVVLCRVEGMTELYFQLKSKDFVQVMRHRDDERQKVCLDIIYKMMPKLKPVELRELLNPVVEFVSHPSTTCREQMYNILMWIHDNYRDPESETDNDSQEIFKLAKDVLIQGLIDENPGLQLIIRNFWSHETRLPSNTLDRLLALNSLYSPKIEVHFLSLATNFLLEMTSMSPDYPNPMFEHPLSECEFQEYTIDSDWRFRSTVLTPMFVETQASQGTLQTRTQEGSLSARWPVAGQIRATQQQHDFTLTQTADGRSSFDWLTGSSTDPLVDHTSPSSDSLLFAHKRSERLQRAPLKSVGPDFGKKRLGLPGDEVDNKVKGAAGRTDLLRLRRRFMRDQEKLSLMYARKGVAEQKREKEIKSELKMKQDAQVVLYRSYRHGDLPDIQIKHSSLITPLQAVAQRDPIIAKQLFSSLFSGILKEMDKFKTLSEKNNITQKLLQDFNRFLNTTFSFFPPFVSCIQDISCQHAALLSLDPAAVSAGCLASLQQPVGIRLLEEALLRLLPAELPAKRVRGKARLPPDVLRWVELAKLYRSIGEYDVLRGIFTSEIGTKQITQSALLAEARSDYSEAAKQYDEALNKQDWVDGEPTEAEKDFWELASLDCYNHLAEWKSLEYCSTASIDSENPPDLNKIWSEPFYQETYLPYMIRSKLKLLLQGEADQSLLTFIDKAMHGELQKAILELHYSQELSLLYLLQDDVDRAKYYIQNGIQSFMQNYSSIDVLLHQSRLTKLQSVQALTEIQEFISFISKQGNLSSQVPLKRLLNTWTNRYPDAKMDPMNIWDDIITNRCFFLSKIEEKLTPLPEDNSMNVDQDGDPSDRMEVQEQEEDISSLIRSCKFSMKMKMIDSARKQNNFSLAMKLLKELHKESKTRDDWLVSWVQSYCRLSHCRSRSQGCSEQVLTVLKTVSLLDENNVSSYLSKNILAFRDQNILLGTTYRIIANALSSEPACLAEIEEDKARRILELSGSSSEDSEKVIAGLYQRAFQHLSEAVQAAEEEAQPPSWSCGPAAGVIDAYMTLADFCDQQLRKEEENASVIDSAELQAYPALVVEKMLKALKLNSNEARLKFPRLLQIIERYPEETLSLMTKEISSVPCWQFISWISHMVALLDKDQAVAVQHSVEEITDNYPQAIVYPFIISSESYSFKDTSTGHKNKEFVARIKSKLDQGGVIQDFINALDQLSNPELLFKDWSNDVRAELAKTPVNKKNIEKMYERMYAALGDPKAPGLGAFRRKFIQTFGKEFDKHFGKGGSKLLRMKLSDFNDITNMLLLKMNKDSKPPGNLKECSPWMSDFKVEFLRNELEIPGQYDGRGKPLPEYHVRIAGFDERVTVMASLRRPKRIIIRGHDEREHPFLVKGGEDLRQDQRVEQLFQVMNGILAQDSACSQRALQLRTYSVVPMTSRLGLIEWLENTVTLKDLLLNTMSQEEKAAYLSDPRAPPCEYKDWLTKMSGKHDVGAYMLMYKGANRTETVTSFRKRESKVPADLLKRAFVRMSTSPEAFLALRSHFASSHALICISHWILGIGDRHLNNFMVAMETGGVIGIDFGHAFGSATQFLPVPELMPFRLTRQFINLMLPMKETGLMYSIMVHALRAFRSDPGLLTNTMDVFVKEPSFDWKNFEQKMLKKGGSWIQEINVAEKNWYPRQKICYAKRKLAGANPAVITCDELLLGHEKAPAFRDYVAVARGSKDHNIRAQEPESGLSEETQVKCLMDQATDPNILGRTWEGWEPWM

CCRF-CEM = assay: Cytotoxicity against human CCRF-CEM cells assessed as cell growth inhibition at 10 uM after 48 hrs by SRB assay relative to control; type: functional; conditions: read-out: GI
SR = assay: Cytotoxicity against human SR cells assessed as cell growth inhibition at 10 uM after 48 hrs by SRB assay relative to control; type: functional; conditions: read-out: GI
EKVX = assay: Cytotoxicity against human EKVX cells assessed as cell growth inhibition at 10 uM after 48 hrs by SRB assay relative to control; type: functional; conditions: read-out: GI
[3] = Cytotoxicity against human HOP62 cells assessed as cell growth inhibition at 10 uM after 48 hrs by SRB assay relative to control; type: functional; conditions: HOP-62, 48 h, read-out: GI
[4] = Cytotoxicity against human HOP92 cells assessed as cell growth inhibition at 10 uM after 48 hrs by SRB assay relative to control; type: functional; conditions: HOP-92, 48 h, read-out: GI
NCI-H23 = assay: Cytotoxicity against human NCI-H23 cells assessed as cell growth inhibition at 10 uM after 48 hrs by SRB assay relative to control; type: functional; conditions: NCI-H23, 48 h, read-out: GI
NCI-H322M = assay: Cytotoxicity against human NCI-H322M cells assessed as cell growth inhibition at 10 uM after 48 hrs by SRB assay relative to control; type: functional; conditions: read-out: GI
NCI-H522 = assay: Cytotoxicity against human NCI-H522 cells assessed as cell growth inhibition at 10 uM after 48 hrs by SRB assay relative to control; type: functional; conditions: NCI-H522, 48 h, read-out: GI
[5] = Cytotoxicity against human COLO205 cells assessed as cell growth inhibition at 10 uM after 48 hrs by SRB assay relative to control; type: functional; conditions: COLO 205, 48 h, read-out: GI
KM12 = assay: Cytotoxicity against human KM12 cells assessed as cell growth inhibition at 10 uM after 48 hrs by SRB assay relative to control; type: functional; conditions: KM12, 48 h, read-out: GI
[6] = Cytotoxicity against human SF268 cells assessed as cell growth inhibition at 10 uM after 48 hrs by SRB assay relative to control; type: functional; conditions: SF-268, 48 h, read-out: GI
[7] = Cytotoxicity against human SNB75 cells assessed as cell growth inhibition at 10 uM after 48 hrs by SRB assay relative to control; type: functional; conditions: SNB-75, 48 h, read-out: GI
[8] = Cytotoxicity against human LOXIMVI cells assessed as cell growth inhibition at 10 uM after 48 hrs by SRB assay relative to control; type: functional; conditions: LOX IMVI, read-out: GI
SK-MEL-28 = assay: Cytotoxicity against human SK-MEL-28 cells assessed as cell growth inhibition at 10 uM after 48 hrs by SRB assay relative to control; type: functional; conditions: SK-MEL-28, 48 h, read-out: GI
[9] = Cytotoxicity against human UACC257 cells assessed as cell growth inhibition at 10 uM after 48 hrs by SRB assay relative to control; type: functional; conditions: UACC-257, 48 h, read-out: GI
[10] = Cytotoxicity against human OVCAR4 cells assessed as cell growth inhibition at 10 uM after 48 hrs by SRB assay relative to control; type: functional; conditions: OVCAR-4, 48 h, read-out: GI
[11] = Cytotoxicity against human OVCAR8 cells assessed as cell growth inhibition at 10 uM after 48 hrs by SRB assay relative to control; type: functional; conditions: OVCAR-8, 48 h, read-out: GI
786-0 = assay: Cytotoxicity against human 786-0 cells assessed as cell growth inhibition at 10 uM after 48 hrs by SRB assay relative to control; type: functional; conditions: 786-0, 48 h, read-out: GI
A498 = assay: Cytotoxicity against human A498 cells assessed as cell growth inhibition at 10 uM after 48 hrs by SRB assay relative to control; type: functional; conditions: A498, 48 h, read-out: GI
[12] = Cytotoxicity against human UO31 cells assessed as cell growth inhibition at 10 uM after 48 hrs by SRB assay relative to control; type: functional; conditions: UO-31, 48 h, read-out: GI
[13] = Cytotoxicity against human Hs 578T cells assessed as cell growth inhibition at 10 uM after 48 hrs by SRB assay relative to control; type: functional; conditions: read-out: GI
[14] = Cytotoxicity against human BT549 cells assessed as cell growth inhibition at 10 uM after 48 hrs by SRB assay relative to control; type: functional; conditions: BT-549, 48 h, read-out: GI
MDA-MB-468 = assay: Cytotoxicity against human MDA-MB-468 cells assessed as cell growth inhibition at 10 uM after 48 hrs by SRB assay relative to control; type: functional; conditions: MDA-MB-468, 48 h, read-out: GI

| Structure (SMILES) | inhibition of growth at 10 µM (CCRF-CEM) | inhibition of growth at 10 µM (SR) | inhibition of growth at 10 µM (EKVX) | inhibition of growth at 10 µM [3] | inhibition of growth at 10 µM (NCI-H23) | inhibition of growth at 10 µM (NCI-H322M) | inhibition of growth at 10 µM (NCI-H522) | inhibition of growth at 10 µM [5] | inhibition of growth at 10 µM (KM12) | inhibition of growth at 10 µM [6] | inhibition of growth at 10 µM [7] | inhibition of growth at 10 µM [8] | inhibition of growth at 10 µM (SK-MEL-28) | inhibition of growth at 10 µM [9] | inhibition of growth at 10 µM [10] | inhibition of growth at 10 µM [11] | inhibition of growth at 10 µM (786-0) | inhibition of growth at 10 µM (A498) | inhibition of growth at 10 µM [12] | inhibition of growth at 10 µM [13] | other results |
| --- | --- | --- | --- | --- | --- | --- | --- | --- | --- | --- | --- | --- | --- | --- | --- | --- | --- | --- | --- | --- | --- |
| COc1ccc(-c2cccc3c(=O)nc(N4CCOCC4)oc23)cc1 | 2.57% | 26.1% | 11.1% | 5.81% | 14.3% | 3.11% | 12.8% | -2.6% | 2.91% | 6.91% | 38.2% | 13% | 2.38% | 4.28% | 2.85% | 4.78% | 9.72% | 27.1% | 17.4% | 11.1% | IC50 [1]: 2.7 µM; IC50 [2]: 9.94 µM; inhibition of growth at 10 µM [4]: 34.8%; inhibition of growth at 10 µM [14]: 4.99%; inhibition of growth at 10 µM (MDA-MB-468): 6.21% |
| O=c1nc(N2CCOCC2)oc2c(-c3cccs3)cccc12 | 2.36% | 18% | 14.1% | 8.34% | 13% | 9.05% | 13.8% | 1.02% | 1.99% | 5.21% | 32.7% | 14.4% | 2.22% | 3.74% | 2.16% | 5% | 7.7% | 36.8% | 20.2% | 7.89% | IC50 [1]: 4.5 µM; IC50 [2]: 7.12 µM; inhibition of growth at 10 µM [4]: 44.4%; inhibition of growth at 10 µM [14]: 14.5%; inhibition of growth at 10 µM (MDA-MB-468): 20.3% |
| NC(=O)c1ccc(-c2cccc3c(=O)nc(N4CCOCC4)oc23)cc1 | 1.37% | 8.01% | 2.66% | 4.92% | 7.55% | 7.01% | 10.4% | -3.93% | 2.45% | 6.21% | 25.5% | 8.86% | -3.25% | -3.78% | 9.54% | -1.1% | -0.31% | 1.82% | 10.8% | 2.8% | IC50 [1]: > 10 µM; IC50 [2]: 8.81 µM; inhibition of growth at 10 µM [14]: 1.94%; inhibition of growth at 10 µM (MDA-MB-468): -5.19% |
| O=c1nc(N2CCOCC2)oc2ccc(-c3cccc4c3sc3ccccc34)cc12 | 4.4% | 19.5% | 5.25% | 4.6% | -2.37% | -0.24% | -2.38% | -2.96% | 0.12% | -3.32% | 10.5% | 1.76% | 4.76% | 4.51% | 2.78% | 0.97% | 5.42% | 37.4% | 1.02% | 1.62% | inhibition of growth at 10 µM [4]: 41.6%; inhibition of growth at 10 µM [14]: 4.62%; inhibition of growth at 10 µM (MDA-MB-468): 20% |
